These results are taken from publication PMC12446003, “Pharmacological characterization of linaprazan glurate (X842), a novel potassium-competitive acid blocker, in vitro and in vivo” (Frontiers in Pharmacology, 2025).

“And” between values parts separate entries of the source, which are not always exact repeats. Identical values can stand only once. Like-named read-outs stand apart in the source and are kept apart here.

The test system of experiment [1] is gastric acid secretion in pylorus-ligated rats. As to the kind of experiment: Gastric acid inhibition in pylorus-ligated rats. Conditions: oral 2 mg/kg, pylorus-ligated rats, relative to vehicle. Type of experiment: in vivo. How it is done: The rats were fasted overnight with ad libitum access to water. Drugs and vehicle were administered orally to rats in a blinded manner. The pylorus was ligated under ether anesthesia within 1 h after drug and vehicle administration, and the abdomen was closed by suturing. At 4 h after pyloric ligation, the rats were sacrificed by CO2 asphyxiation, and the stomach was removed ([Hori et al., 2010]). The gastric contents were collected and centrifuged at 3,000 rpm for 10 min. The volume of each sample was measured, the gastric acid concentration was determined by acid-base titration, and the total acidity was calculated.

Experiment [2] concerns the target T1, Gastric H+/K+-ATPase (Oryctolagus cuniculus, UniProt P27112).
T1 construct: Gastric H^+/K^+-ATPase was prepared from rabbit glands; from tissue; host or cells: rabbit gastric glands
Briefly: Inhibition of H+/K+-ATPase activity (Malachite Green Pi assay). The class given is biochemical, rabbit. How it is done: The H^+/K^+-ATPase inhibition reaction was performed in buffer (50 mM Tris-HCl, 5 mM magnesium chloride, 10 μM valinomycin, pH 6.5) with or without 20 mM potassium chloride (KCl), and inorganic phosphate (Pi) was detected using Malachite Green solution, made from 0.1% malachite green, 1.5% hexaammonium molybdate, and 0.2% Tween-20 in a ratio of 100:25:2 ([Skou, 1982]; [Feng et al., 2011]). Gastric H^+/K^+-ATPase was prepared from rabbit glands, as described previously ([Kondo et al., 2012]; [Arikawa et al., 2012]). The reaction occurred in a 96-well plate with a total volume of 50 µL/well, including buffer, enzyme, ATP, and drug. After 30 min at 37 °C for enzyme stability, ATP was added at 0.2 mM to start the reaction, which was optimized from the titration experiments. The reaction lasted 20 min at 37 °C, followed by the addition of Malachite Green for the colorimetric assay. The enzyme control wells contained the full enzyme system, while the buffer control wells contained only buffer to correct for background values. Absorbance was measured at 620 nm using a plate reader (SpectraMax M5). The inhibition rate was calculated using the following formula, accounting for the enzyme activity in the presence and absence of K^+: Inhibition Rate %=ODwith K+and enzyme,without drug−ODwith K+and enzyme,with drug /ODwith K+and enzyme,without drug−ODwithout K+and enzyme,without drug×100 where “OD with K^+ and enzyme, without drug” is the optical density measured at 620 nm in the presence of K^+ and enzyme, without the tested drug (enzyme control wells); “OD with K^+ and enzyme, with drug” is the optical density measured at 620 nm in the presence of K^+ and enzyme, with the tested drug; and “OD without K^+ and enzyme, without drug” is the optical density measured at 620 nm in the absence of K^+ and enzyme, without the tested drug (buffer control wells).

T1 sequence (P27112 whole entry): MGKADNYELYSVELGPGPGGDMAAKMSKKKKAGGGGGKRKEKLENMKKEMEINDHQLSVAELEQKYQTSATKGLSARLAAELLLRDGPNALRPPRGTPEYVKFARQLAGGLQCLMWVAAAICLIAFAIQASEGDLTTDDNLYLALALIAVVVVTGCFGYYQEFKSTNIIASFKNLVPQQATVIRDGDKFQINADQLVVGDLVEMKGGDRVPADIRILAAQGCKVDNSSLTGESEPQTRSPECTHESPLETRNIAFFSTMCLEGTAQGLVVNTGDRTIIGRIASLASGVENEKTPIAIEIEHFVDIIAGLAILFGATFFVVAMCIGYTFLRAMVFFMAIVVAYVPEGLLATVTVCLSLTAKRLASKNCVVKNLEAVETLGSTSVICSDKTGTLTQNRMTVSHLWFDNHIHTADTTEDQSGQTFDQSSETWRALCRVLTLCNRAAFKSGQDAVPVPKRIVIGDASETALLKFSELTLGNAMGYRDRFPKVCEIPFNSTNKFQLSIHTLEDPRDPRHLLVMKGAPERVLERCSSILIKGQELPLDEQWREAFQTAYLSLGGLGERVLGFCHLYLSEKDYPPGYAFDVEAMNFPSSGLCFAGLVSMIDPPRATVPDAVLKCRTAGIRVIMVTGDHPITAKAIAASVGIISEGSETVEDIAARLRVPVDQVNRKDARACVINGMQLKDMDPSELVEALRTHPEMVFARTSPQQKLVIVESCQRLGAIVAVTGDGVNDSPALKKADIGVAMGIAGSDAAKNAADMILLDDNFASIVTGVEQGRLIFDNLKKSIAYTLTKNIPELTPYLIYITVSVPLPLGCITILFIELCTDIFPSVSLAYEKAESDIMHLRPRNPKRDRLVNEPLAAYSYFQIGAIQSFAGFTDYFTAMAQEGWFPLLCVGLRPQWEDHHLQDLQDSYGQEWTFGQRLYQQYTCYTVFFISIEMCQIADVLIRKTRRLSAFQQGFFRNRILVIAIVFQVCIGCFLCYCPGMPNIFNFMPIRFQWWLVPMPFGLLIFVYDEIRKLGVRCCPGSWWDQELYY
T1 sequence (P18597 whole entry partner): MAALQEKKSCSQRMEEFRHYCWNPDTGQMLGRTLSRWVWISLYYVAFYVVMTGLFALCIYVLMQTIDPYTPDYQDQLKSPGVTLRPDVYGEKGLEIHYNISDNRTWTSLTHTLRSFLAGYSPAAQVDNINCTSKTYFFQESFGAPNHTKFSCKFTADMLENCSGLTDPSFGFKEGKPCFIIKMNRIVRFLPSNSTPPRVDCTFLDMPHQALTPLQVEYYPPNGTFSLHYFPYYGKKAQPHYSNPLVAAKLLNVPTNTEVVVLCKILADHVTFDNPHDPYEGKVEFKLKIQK

On to `CNCc1cc(-c2ccccc2F)n(S(=O)(=O)c2cccnc2)c1` [vonoprazan, 1-[5-(2-fluorophenyl)-1-(pyridin-3-ylsulfonyl)-1H-pyrrol-3-yl]-N-methylmethanamine], for which the “Total acidity inhibitory rate (%)” value in experiment [1] amounted to 47%. For the same compound, the “Inhibitory effect on H+/K+-ATPase in the absence of K+” value in experiment [2] (absence of K+) is listed as “No measurable inhibitory effect”. The IC50 was 17 nM and 17.1 nM in experiment [2] (in the presence of K+ (20 mM KCl), pH 6.5, read-out: IC50, H+/K+-ATPase inhibition); 17.1 nM in experiment [2] (in the presence of potassium ions, rabbit gastric glands, read-out: IC50 (Figure 7A)).
